Experimental data taken from PubChem BioAssay (NCI).
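48-hour exposure; five concentrations; linearly interpolated endpoints. GI50: concentration for 50% inhibition of growth. TGI: concentration producing complete growth inhibition.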

Assays:
Experiment in all cases: DTP human tumour cell line panel, 48 h
[1] = test system: K-562 leukemia
[2] = test system: SW-620 colon
[3] = test system: UACC-62 melanoma
[4] = test system: LOX IMVI melanoma
[5] = test system: OVCAR-3 ovarian
[6] = test system: ACHN renal
[7] = test system: IGROV1 ovarian
[8] = test system: MOLT-4 leukemia
[9] = test system: LXFL 529 NSCLC
[10] = test system: KM20L2 colon

Compound	GI50 [1] [µM]	TGI [1] [µM]	GI50 [2] [µM]	TGI [2] [µM]	GI50 [3] [µM]	TGI [3] [µM]	GI50 [4] [µM]	TGI [4] [µM]	GI50 [5] [µM]	TGI [5] [µM]	GI50 [6] [µM]	TGI [6] [µM]	GI50 [7] [µM]	TGI [7] [µM]	GI50 [8] [µM]	TGI [8] [µM]	TGI [9] [µM]	TGI [10] [µM]
COc1cc(CNc2oc(-c3ccccc3)c(-c3ccccc3)c2C#N)cc(CN2CCN(C)CC2)c1O	1.51	4.16	1.72	3.33	1.77	3.47	1.67	3.18	1.76	3.21	1.8	3.19	1.58	3.25	1.96	4.24		
COc1ccc2[nH]c(C(=O)OCc3ccc4c(Cl)cc(Cl)c(O)c4n3)cc2c1	0.355	3.05	0.814	2.31	1.33	2.61	0.907	2.22	0.513	1.83	1.08	2.26	0.601	1.95	1.03	3.72		
CC/C(=C/c1ccc(OC)cc1OC)[N+](=O)[O-]	2.91	61.5	2.28	4.93	1.73	3.96	1.31	2.9	1.84	3.38	2.14	4.63	3.4	11.5	3.73	35.6		
Cc1ccc(C(=O)NC2CC2)cc1-c1ccc2[nH]ncc2c1	> 22	> 25	> 25	> 25	> 25	> 25	> 25	> 25	> 25	> 25	> 25	> 25	> 25	> 25	> 25	> 25		
N#Cc1cccc(C2C3=C(COC3=O)N(CCO)c3cc4c(cc32)OCO4)c1 (stereo unspecified)	0.294	> 50	1.53	> 50	1.66	> 50	2.42	> 50	1.35	> 50	3.53	> 50	8.08	> 50	3.64	> 50		
CC1SC(c2ccc(Cl)cc2Cl)N(NC(=O)C(O)c2ccccc2)C1=O (stereo unspecified)	39.7	> 100	> 100	> 100	24.2	> 100	> 100	> 100	28.7	> 100	48.4	> 100	22.7	76.9	34.5	> 100		
O=c1[nH]c(=O)n(C2CC(O)C(CO)O2)cc1C(F)(F)F (stereo unspecified)		> 100	9.78	> 100	2.59	> 91.8	0.936	> 100	> 77.4	> 100	1.3	> 100	9.02	> 100	1.65	> 100		
O=C1NC2C(O)CCCCC2C12CCCCC2 (stereo unspecified)		> 100		> 100		> 100		> 100		> 100		> 100		> 100		> 100	> 100	
COc1ccc(S(=O)(=O)N(C(C)=O)c2ccccc2/C=C/c2cc[n+]([O-])cc2)cc1	0.321	> 3.17	0.559	> 10	0.457	> 10	0.955	> 10	0.371	1.57	2.36	> 10	1.07	> 10	1.25	> 10		
C=C(C)[C@@H]1CC[C@]2(C(=O)NS(=O)(=O)c3ccccc3)CC[C@]3(C)[C@H](CC[C@@H]4[C@@]5(C)CC[C@H](OC(=O)NS(=O)(=O)c6ccccc6)C(C)(C)[C@@H]5CC[C@]43C)[C@@H]12	1.41	17.3	3.27	15.2	1.32	2.92	1.56	3.06	1.85	3.62	2.73	9	2.46	5.56	2.58	24		
COC(=O)CC[C@]12C[C@]13CC[C@]1(C)C4C(C)C[C@]5(CC(C)C(=O)O5)OC4CC1(C)C3CCC2C(C)(C)O (stereo partly specified)		> 100		> 100				> 100		> 100		> 100		> 100			> 100	> 100
COc1cc(NCCCCCN=C(N)NC(N)=NC(C)C)c2ncccc2c1	0.607	19.3	0.927	14	2.69	8.96	0.495	2.79	0.217	0.759	14.8	31.2	0.228	0.809	0.518	11		
COc1c(N2CCN(CN3C(=O)C(=Nc4ccc(S(=O)(=O)Nc5ncccn5)cc4)c4cc(Cl)ccc43)C(C)C2)c(F)cc2c(=O)c(C(=O)O)cn(C3CC3)c12 (stereo unspecified)	21.5	> 50	10.7	44.7	13.7	49.9	12.8	> 50	14.3	> 50	11.8	> 50	15.8	> 50	33.3	> 50		
O=C(Nc1cccc(C(F)(F)F)c1)Oc1ccc(Cl)c2cccnc12	1.02	> 100	1.49	12.9	1.15	3.57	0.764	4.02	0.832	6.93	1.23	5.43	1.22	4.43	0.86	22.8		
O=c1/c(=N\Nc2ccccc2)c2cccc3ccc4cccc1c4c32		> 100		> 100		> 100		> 100		> 100		88.6		> 100		> 100		
